Data published in patent publication US20250325491A1, “POLYVALENT MOLECULE BASED LIPID NANOPARTICLES FOR NUCLEIC ACID DELIVERY” (Bio-TRIP B.V., priority 2022, published 2025).

Tests used:
[1] = Cryo-TEM of nanoparticles; format: physicochemical; conditions: siRNA-aNPs containing the polyvalent material
Experimental: Size and shape of the nanoparticles was also assessed by cryo-transmission electron microscopy (cryo-TEM). The surface of 200-mesh lacey carbon supported copper grids (Electron Microscopy Sciences) was plasma charged for 40 seconds using a carbon coater (Cressington 208). Subsequently, 3 μl of nanoparticle sample (˜1 mg protein/ml) was pipetted on a grid and vitrified into a thin film by plunge vitrification in liquid ethane. This step was performed by using an automated robot (FEI Vitrobot Mark IV). Cryo-TEM imaging was acquired on the cryo-transmission electron microscope TITAN (Thermo Fisher), equipped with a field emission gun (FEG), a post-column Gatan imaging filter (model 2002) and a post-GIF 2 k×2 k Gatan CCD camera (model 794). The imaging was performed at 300 kV acceleration voltage in bright-field TEM mode with zero-loss energy filtering at 24,000× magnification (dose rate of 11.8 e−/Å2·s), and 1s acquisition time. Pictures and results are reported in Table S6, FIG. 7, FIG. 8, FIG. 9 (A), FIG. 15.

[2] = test system: RAW264.7 macrophage cells; assay: In vitro Firefly luciferase expression (mRNA transfection); format: cell-based; conditions: 100 ng mRNA per well, 24 hours after transfection (FIG. 14)
Experimental: For the detection of Firefly luciferase expression in vitro, the ONE-Glo™ Luciferase Assay System (Promega) was used. RAW264.7 cells were seeded at a density of 35 k cells per well in a 96-well plate in 100 μL. After approximately 6 hours the RAW264.7 cells were transfected with 10 μL Firefly luciferase mRNA (RIBOPRO) using aNPs or LNPs at a dose of 100 ng mRNA per well. 24 hours after transfection, cell viability was determined by a CellTiter 96® AQueous One Solution Cell Proliferation assay (MTS) (Promega) assay. 10 μL reagent was added to the cells, and absorbance was measured at 495 nm after an hour of incubation (37° C., 5% CO2). Subsequently, the cells were washed three times with 1×PBS, and then 40 μL ONE-Glo™ Luciferase Assay Reagent was added to each well. After complete lysis of the cells, the cell lysates were transferred to a white flat bottom 96-well plate. Luminescence was measured using a Tecan Spark plate reader. Luciferase expression was expressed as luciferase intensity after normalization to the cell viability and subtracting background signal.

For `CCCCCCCCOC(=O)CCN(CCCN(CCCCN(CCCN(CCC(=O)OCCCCCCCC)CCC(=O)OCCCCCCCC)CCCN(CCC(=O)OCCCCCCCC)CCC(=O)OCCCCCCCC)CCCN(CCC(=O)OCCCCCCCC)CCC(=O)OCCCCCCCC)CCC(=O)OCCCCCCCC` [Example A2, G1-ACR-nC8-8], the “Cryo-TEM Diameter” value ([1]; SD over n individual particles) was 55 ± 11 nm, the “Cryo-TEM PDI” value ([1]; n individual particles) was 0.04 and the “Luminescence intensity after Firefly luciferase mRNA transfection, compared with ALC-0315 LNP and aNP controls” value [2] was “outperform the reference LNP and aNP particles”.
